Experimental data from US20120225909A1, “INDAZOLE ANALOG” (priority 2009, published 2012).

Assays:
[1] = biological target: T1, human β1-adrenergic receptor (Homo sapiens, UniProt P08588); assay: Test Case 2-B: human β1-adrenergic receptor agonist activity; format: cell-based; settings: for Emax: read-out: β1 receptor I.A.
T1 construct: expressed in transfected cells; host or cells: CHO (Chinese hamster ovary) cells, pcDNA3
Method: Measurement of Human β1-Adrenergic Receptor Agonist Activity
The human β1-adrenergic receptor agonist activity is measured by the same method as in Test Case 1-B using CHO (Chinese hamster ovary) cells transfected by a human β1 gene inserted in pcDNA3 (Invitrogen).

[2] = biological target: T2, human β2-adrenergic receptor (Homo sapiens, UniProt P07550); assay: Test Case 3-B: human β2-adrenergic receptor agonist activity; format: cell-based; settings: for Emax: read-out: β2 receptor I.A.
T2 construct: expressed in transfected cells; host or cells: CHO (Chinese hamster ovary) cells, pcDNA3
T2 sequence (P07550 whole entry): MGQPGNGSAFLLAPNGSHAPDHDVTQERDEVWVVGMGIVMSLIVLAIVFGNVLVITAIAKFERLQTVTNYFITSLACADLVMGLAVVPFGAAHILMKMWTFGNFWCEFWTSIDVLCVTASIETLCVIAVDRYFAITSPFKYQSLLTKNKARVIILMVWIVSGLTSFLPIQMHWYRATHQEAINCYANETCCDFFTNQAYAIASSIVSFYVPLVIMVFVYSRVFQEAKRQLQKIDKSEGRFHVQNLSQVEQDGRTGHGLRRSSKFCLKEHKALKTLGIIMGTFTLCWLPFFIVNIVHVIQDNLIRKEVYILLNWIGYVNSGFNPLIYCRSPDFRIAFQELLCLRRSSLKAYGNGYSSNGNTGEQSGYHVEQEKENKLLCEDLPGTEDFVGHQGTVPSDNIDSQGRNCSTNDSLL
Method: Measurement of Human β2-Adrenergic Receptor Agonist Activity
The human β2-adrenergic receptor agonist activity is measured by the same method as in Test Case 1-B using CHO (Chinese hamster ovary) cells transfected by a human β2 gene inserted in pcDNA3 (Invitrogen).

Male C57BL/6 Cr mice = assay: Test Case 10: mouse piloerection test; format: in vivo; settings: 10 mg/kg i.v., Score 0
Method: Male C57BL/6 Cr mice (Japan SLC) are used. The dissolved compound is administered rapidly via a caudal vein. The animal is placed on the observation stand 5, 15, 30, and 60 minutes after administration, and the state of piloerection is observed. The state of piloerection is evaluated by the following 7-level scoring system according to the examples by the method of Irwin (Psychopharmacologia 1968, 13; 222-257).
Scoring system: “Score 0”: No piloerection at all; “Score 1”: Slight piloerection (piloerection on part of the body such as the back or neck); “Score 2”: Moderate piloerection (piloerection over the entire body); “Score 3”: Marked piloerection (piloerection over the entire body, conspicuous to the extent that the skin can be seen).
“Score 0.5” is between “Score 0” and “Score 1” “Score 1.5” is between […]. “Score 2.5” is between “Score 2” and “Score 3.”

[3] = biological target: T3, human β3-adrenergic receptor (Homo sapiens, UniProt P13945); assay: Test Case 1-B: human β3-adrenergic receptor agonist activity (cAMP-Screen, 96-well); format: cell-based; settings: for Emax: 0.5 h, read-out: β3 receptor I.A.; for EC50: CHO cells, cAMP
T3 construct: A full-length human β3 gene is obtained from a human genomic library (made by Clontech) using this as the probe; expressed in transfected cells; host or cells: CHO (Chinese hamster ovary) cells, pcDNA3
T3 sequence (P13945 whole entry): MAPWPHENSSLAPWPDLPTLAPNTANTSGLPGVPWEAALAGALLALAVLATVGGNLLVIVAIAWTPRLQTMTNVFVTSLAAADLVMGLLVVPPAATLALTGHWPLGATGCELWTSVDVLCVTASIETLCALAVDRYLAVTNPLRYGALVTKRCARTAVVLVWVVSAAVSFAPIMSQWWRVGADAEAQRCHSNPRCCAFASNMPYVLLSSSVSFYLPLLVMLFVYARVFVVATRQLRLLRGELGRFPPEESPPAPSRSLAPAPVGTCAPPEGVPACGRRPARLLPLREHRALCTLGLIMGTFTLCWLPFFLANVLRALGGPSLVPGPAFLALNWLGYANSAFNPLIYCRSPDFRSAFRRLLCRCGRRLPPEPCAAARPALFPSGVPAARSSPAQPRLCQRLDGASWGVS
Method: Measurement of Human β3-Adrenergic Receptor Agonist Activity
The human β3-adrenergic receptor agonist activity is measured using CHO (Chinese hamster ovary) cells transfected by a human β3 gene inserted in pcDNA3 (Invitrogen). […] A full-length human β3 gene is obtained from a human genomic library (made by Clontech) using this as the probe. These cells are cultured in Ham's F-12 medium containing 10% fetal calf serum and 400 μg/mL genectin (Invitrogen). These cells are sown in 96-well plates to make 2×10^4 cells/well. After culturing for approximately 20 hours, they are allowed to stand for 15 minutes in 80 μL of serum-free Ham's F-12 medium. After first dissolving the test compound by DMSO, it is serially diluted by Ham's F-12 containing 100 mmol/L HEPES and 1 mmol/L isobutylmethylxanthine, and 20 μL is added to the cells. After culturing for 30 minutes, the medium is removed, and 0.1 mL of the assay/lysis buffer contained in the cAMP-Screen kit (made by Applied Bioscience) is added and incubated for 30 minutes at 37° C. The cAMP in this cell lysate is assayed by the above cAMP-Screen kit.

[4] = biological target: T4, human α1A-adrenergic receptor (Homo sapiens, UniProt P35348); assay: Test Case 4-A: human α1A-adrenergic receptor agonist activity (HEK293, Ca flux, Fura-2); format: cell-based; design: expressed in transfected cells; host or cells: HEK293 cells, pcDNA3.1; settings: for Emax: HEK293, read-out: α1A receptor I.A.
T4 sequence (P35348 1-466): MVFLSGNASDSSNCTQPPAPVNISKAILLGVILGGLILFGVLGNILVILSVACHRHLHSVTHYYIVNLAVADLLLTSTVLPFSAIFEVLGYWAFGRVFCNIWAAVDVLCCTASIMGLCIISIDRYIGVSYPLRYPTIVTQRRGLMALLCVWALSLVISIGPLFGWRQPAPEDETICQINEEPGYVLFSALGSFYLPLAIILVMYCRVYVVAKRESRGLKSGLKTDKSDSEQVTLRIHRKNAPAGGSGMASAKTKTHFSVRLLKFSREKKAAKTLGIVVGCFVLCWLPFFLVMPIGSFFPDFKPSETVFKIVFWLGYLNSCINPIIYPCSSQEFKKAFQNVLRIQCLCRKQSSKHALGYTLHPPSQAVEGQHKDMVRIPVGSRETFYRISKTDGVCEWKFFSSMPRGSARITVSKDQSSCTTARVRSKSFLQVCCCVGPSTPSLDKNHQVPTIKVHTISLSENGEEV
Method: Measurement of Human α1A-Adrenergic Receptor Agonist Activity
The human α1A-adrenergic receptor agonist activity is measured using HEK293 cells transfected by a human α1A gene inserted in pcDNA3.1 (Invitrogen). […] After loading for 30 minutes in a CO2 incubator, the excess Fura-2AM is removed by washing twice with assay buffer. After preparing the centrifuged cells to make 5×10^6 cells/mL by assay buffer, 80 μL/well is dispensed into 96-well UV plates (made by Corning) to make cell plates. Sample plates with the test compound diluted 10-fold by assay buffer from 10^−5 to 10^−12 M and cell plates are set in an FDSS4000 (made by Hamamatsu Photonics). After preincubating for 180 seconds, measurement of fluorescence intensity (excitation wavelength 340 nm, 380 nm, measurement wavelength 500 nm) is begun at 2-second intervals. After approximately 30 seconds of measurement, 20 μL of test sample from a sample plate is added to the cell plate, and measurement is continued for another 270 seconds. The Ca flux caused by the test compound is calculated taking the difference in the maximum value of the fluorescence intensity ratio at 340 nm and 380 nm after adding the test compound and the fluorescence intensity ratio before adding the test compound as the peak height.

T1 sequence (P08588 whole entry): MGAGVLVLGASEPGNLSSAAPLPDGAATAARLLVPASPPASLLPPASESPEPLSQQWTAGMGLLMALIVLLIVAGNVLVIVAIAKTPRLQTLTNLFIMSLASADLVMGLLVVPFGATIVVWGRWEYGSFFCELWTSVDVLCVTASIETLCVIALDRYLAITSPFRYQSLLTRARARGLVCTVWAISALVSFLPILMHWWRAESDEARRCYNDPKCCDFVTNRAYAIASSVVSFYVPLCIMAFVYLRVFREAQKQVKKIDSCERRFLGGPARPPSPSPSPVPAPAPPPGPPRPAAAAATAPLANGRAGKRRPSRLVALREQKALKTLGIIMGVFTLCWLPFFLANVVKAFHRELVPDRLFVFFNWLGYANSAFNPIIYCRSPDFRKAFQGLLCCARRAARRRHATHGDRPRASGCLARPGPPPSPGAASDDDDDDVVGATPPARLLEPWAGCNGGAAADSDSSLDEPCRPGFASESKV

| SMILES | Emax [1] [%] | Emax [2] [%] | number of experimental animals matching Score 0 (no piloerection) (Male C57BL/6 Cr mice; n=4, observation time 5 min) | number of experimental animals matching Score 0 (no piloerection) (Male C57BL/6 Cr mice; n=4, observation time 15 min) | number of experimental animals matching Score 0 (no piloerection) (Male C57BL/6 Cr mice; n=4, observation time 30 min) | number of experimental animals matching Score 0 (no piloerection) (Male C57BL/6 Cr mice; n=4, observation time 60 min) | Emax [3] [%] | EC50 ([3]; Test Case 1-B) [nM] | Emax [4] [%] | β1 receptor I.A. ([1]; Test Case 2-B, maximum response of isoproterenol = 100%) [%] | β2 receptor I.A. ([2]; Test Case 3-B, maximum response of isoproterenol = 100%) [%] | β3 receptor I.A. ([3]; Test Case 1-B, maximum response of isoproterenol = 100%) [%] | EC50 ([4]; Test Case 4-A, HEK293 cells, Ca flux, Table 4) [nM] | α1A receptor I.A. ([4]; Test Case 4-A, maximum response of norepinephrine = 100%, Table 4) [%] |
| --- | --- | --- | --- | --- | --- | --- | --- | --- | --- | --- | --- | --- | --- | --- |
| COc1n[nH]c2cc(OCCNC[C@H](O)c3cccc(NS(=O)(=O)c4cc(N)ccc4F)c3)ccc12 [ex6, (R)-5-amino-2-fluoro-N-(3-(1-hydroxy-2-(2-(3-methoxyindazol-6-yloxy)ethylamino)ethyl)phenyl)benzenesulfonamide] | 10 | 7 | 4 | 4 | 4 | 4 | 84 | 0.7 | 0 | – | – | – | – | – |
| COc1n[nH]c2cc(OCCNC[C@H](O)c3cccc(NS(=O)(=O)C4CC4)c3)ccc12 [ex47, (R)-N-(3-(1-hydroxy-2-(2-(3-methoxyindazol-6-yloxy)-ethylamino)ethyl)phenyl)cyclo-propanesulfonamide] | – | – | – | – | – | – | – | 41 | – | 3 | 16 | 72 | 1220 | 28 |
| Cc1cccc(S(=O)(=O)Nc2cccc([C@@H](O)CNCCOc3ccc4c(C)n[nH]c4c3)c2)c1 [ex49, (R)-N-(3-(1-hydroxy-2-(2-(3-methylindazol-6-yloxy)ethylamino)ethyl)phenyl)-3-methyl] | 10 | -3 | – | – | – | – | 96 | 2.5 | 0 | – | – | – | – | – |
| Cc1n[nH]c2cc(OCCNC[C@H](O)c3cccc(NS(=O)(=O)c4ccccc4N)c3)ccc12 [ex53, (R)-2-amino-N-(3-(1-hydroxy-2-(2-(3-methylindazol-6-yloxy)ethylamino)ethyl)phenyl) benzenesulfonamide] | 14 | 2 | – | – | – | – | 98 | 4.1 | 0 | – | – | – | – | – |
| Nc1cccc(S(=O)(=O)Nc2cccc([C@@H](O)CNCCOc3ccc4c(OC(F)F)n[nH]c4c3)c2)c1 [ex104] | 8 | 4 | – | – | – | – | 116 | 0.42 | 0 | – | – | – | – | – |
| CCc1n[nH]c2cc(OCCNC[C@H](O)c3cccc(NS(=O)(=O)c4cccc(N)c4)c3)ccc12 [ex118, (R)-3-amino-N-(3-(2-(2-(3-ethylindazol-6-yloxy)-ethylamino)-1-hydroxyethyl)-phenyl) benzenesulfonamide] | 13 | -1 | – | – | – | – | 77 | 0.25 | 0 | – | – | – | – | – |
| CCc1n[nH]c2cc(OCCNC[C@H](O)c3cccc(NS(=O)(=O)c4cccc(C)c4)c3)ccc12 [ex126, (R)-N-(3-(2-(2-(3-ethylindazol-6-yloxy)ethylamino)-1-hydroxyethyl)phenyl)-3-methylbenzene-sulfonamide] | 8 | 1 | – | – | – | – | 85 | 14 | 0 | – | – | – | – | – |
| O=S(=O)(Nc1cccc([C@@H](O)CNCCOc2ccc3c(Cl)n[nH]c3c2)c1)C1CC1 [ex152] | 3 | 15 | – | – | – | – | 104 | 22 | 8 | – | – | – | – | – |
| Nc1cccc(S(=O)(=O)Nc2cccc([C@@H](O)CNCCOc3ccc4c(Cl)n[nH]c4c3)c2)c1 [ex153, (R)- ? -amino-N-(3-(2-(2-(3-chloroindazol-6-yloxy)-ethylamino)-1-hydroxyethyl)-phenyl) benzenesulfonamide] | 12 | 13 | – | – | – | – | 95 | 0.22 | 0 | – | – | – | – | – |
| O=S(=O)(Nc1cccc([C@@H](O)CNCCOc2ccc3c(C(F)(F)F)n[nH]c3c2)c1)C1CC1 [ex181, (R)-N-(3-(1-hydroxy-2-(2-(3-(trifluoromethyl)indazol-6-yloxy)ethylamino)ethyl)phenyl) cyclopropane-sulfonamide] | 1 | 8 | – | – | – | – | 80 | 16 | 4 | – | – | – | – | – |
| CC(C)c1n[nH]c2cc(OCCNC[C@H](O)c3cccc(NS(=O)(=O)c4cccc(N)c4)c3)ccc12 [ex231, (R)-3-amino-N-(3-(1-hydroxy- ? -(2-( ? iso-propylindazol- ? - yloxy)ethylamino)ethyl)phenyl) benzene ? fonamide] | 18 | 3 | – | – | – | – | 124 | 0.2 | 0 | – | – | – | – | – |
| Cc1n[nH]c2cc(OCCNC[C@H](O)c3cccc(NS(=O)(=O)c4cccc(O)c4)c3)ccc12 [ex236, (R)-3-hydroxy-N-(3-(1-hydroxy-2-(2-(3-methylindazol-6-yloxy)ethylamino)ethyl)phenyl)benzenesulfonamide] | 11 | 5 | – | – | – | – | 58 | 1 | 0 | – | – | – | – | – |
| CNc1cccc(S(=O)(=O)Nc2cccc([C@@H](O)CNCCOc3ccc4c(C)n[nH]c4c3)c2)c1 [ex239, (R)—N-(3-(1-hydroxy-2-(2-(3-methylindazol-6-yloxy)ethylamino)ethyl)phenyl)-3-(methylamino)benzenesulfonamide] | 15 | 2 | – | – | – | – | 108 | 16 | 0 | – | – | – | – | – |
| Cc1n[nH]c2cc(OCCNC[C@H](O)c3cccc(NS(=O)(=O)c4ccccc4O)c3)ccc12 [ex241, (R)-2-hydroxy-N-(3-(1-hydroxy-2-(2-(3-methylindazol-6-yloxy)ethylamino)ethyl)phenyl)benzenesulfonamide] | 9 | 8 | – | – | – | – | 94 | 43 | 0 | – | – | – | – | – |
